Assay results: patent publication US11945812B2, “Annulated 2-amino-3-cyano thiophenes and derivatives for the treatment of cancer” (Boehringer Ingelheim International GmbH, priority 2020, dated 2024)
Read-outs that look alike come from different tables or passages of the source.

What was measured:
[1] = target: T1, KRAS G12C::SOS1 protein-protein interaction (Homo sapiens, UniProt P01116, C118S/C51S/C80L/G12C); experiment: KRAS::SOS1 AlphaScreen binding assay
T1 construct: His6 (N); host or cells: E. coli
From the text: KRAS::SOS1 AlphaScreen Binding Assay
Reagents: • GST-tagged SOS1 (564_1049_GST_TEV_ECO) produced in-house • GST-TEV-SOS1 (564-1049) is purchased from Viva Biotech Ltd. • The expression construct of KRAS G12C (amino acids 1-169 of reference sequence P01116-2 (uniprot), with additional mutations: C51S, C80L, and C118S) containing a C-terminal avi-tag was obtained by gene synthesis (GeneArt, Thermo Fisher) in donor vector (pDONR-221) and transferred by recombinant cloning into pDEST17 vector bearing an N-terminal His6-tag. The protein was expressed in E. coli and the purified protein was biotinylated with the E. coli biotin ligase (BirA) before usage. • GDP (Sigma Cat No G7127) • AlphaLISA Glutathione Acceptor Beads (PerkinElmer, Cat No AL109) • AlphaScreen Streptavidin Donor Beads (PerkinElmer Cat No 6760002) • Assay plates: Proxiplate-384 PLUS, white (PerkinElmer, Cat No 6008289)
Assay Buffer: • 1×PBS • 0.1% BSA • 0.05% Tween 20
7.5 nM (final assay concentration) KRAS G12C, 10 μM (final assay concentration) GDP and 5 nM (final assay concentration) GST-SOS1 are mixed in assay buffer prior to use and kept at room temperature.
AlphaLISA Glutathione Acceptor Beads and AlphaScreen Streptavidin Donor Beads are mixed in assay buffer at a concentration of 10 μg/mL (final assay concentration) each prior to use and kept at room temperature.
Compounds are diluted to a final start concentration of 100 μM and are tested in duplicate. Assay-ready plates (ARPs) are generated using an Access Labcyte Workstation with a Labcyte Echo 550 or 555 accoustic dispenser. For compound a start concentration of 100 μM, 150 nL of compound solution is transferred per well in 11 concentrations in duplicate with serial 1:5 dilutions.
The assay is run using a fully automated robotic system in a darkened room below 100 Lux. 10 μL of KRAS::SOS1 GDP mix is added into columns 1-24 to the 150 nL of compound solution (final dilution in the assay 1:100, final DMSO concentration 1%).
After 30 minutes incubation time 5 μL of bead mix is added into columns 1-23. Plates are kept at room temperature in a darkened incubator. After further 60 minutes incubation, the signal is measured using a PerkinElmer Envision HTS Multilabel Reader using the AlphaScreen specifications from PerkinElmer. Each plate contains the following controls: • diluted DMSO+KRAS::SOS1 GDP mix+bead mix • diluted DMSO+KRAS::SOS1 GDP mix
IC50 values are calculated and analyzed using a 4 parametric logistic model.
Tables of example compounds disclosed herein contain IC50 values determined using the above assay.

[2] = target: Ba/F3 cells bearing a KRAS G12C mutation (Homo sapiens, UniProt P01116, G12C, cells depend on it); experiment: Ba/F3 cell model proliferation assay (AlamarBlue, 72 h); type: cell-based; details: Ba/F3 KRAS G12C cells, 72 h, 10% FCS, uncorrected; read-out: IC50 Ba/F3 KRASG12C
Experimental: Ba/F3 Cell Model Generation and Proliferation Assay
Plasmids containing KRASG12 mutants were obtained from GeneScript. To generate KRASG12-dependent Ba/F3 models, Ba/F3 cells were transduced with retroviruses containing vectors that harbor KRASG12 isoforms. Platinum-E cells (Cell Biolabs) were used for retrovirus packaging. Retrovirus was added to Ba/F3 cells. To ensure infection, 4 μg/mL polybrene was added and cells were spinfected. […] Cells with an infection efficiency of 10% to 20% were further cultivated and puromycin selection with 1 μg/mL was initiated. As a control, parental Ba/F3 cells were used to show selection status. Selection was considered successful when parental Ba/F3 cells cultures died. To evaluate the transforming potential of KRASG12 mutations, the growth medium was no longer supplemented with IL-3. Ba/F3 cells harboring the empty vector were used as a control. Approximately ten days before conducting the experiments, puromycin was left out.
All treatments were performed in technical duplicates. The assay is run using a fully automated robotic system. Treated cells were incubated for 72 h at 37° C. with 5% CO2. AlamarBlue™ (ThermoFisher), a viability stain, was added and fluorescence measured in the PerkinElmer Envision HTS Multilabel Reader.

SW837 cells = experiment: SW837 CTG proliferation assay (CRC); type: cell-based; details: Homo sapiens
Experimental: SW837 CTG Proliferation Assay (CRC)
SW837 cells (ATCC #CCL-235) were grown in cell culture flasks (175 cm^2) using L-15 10% FCS, 1% L-Glu, 1×NEAA and 1×Na-Pyrovat. Cultures were incubated at 37° C. and 0% CO2 in a humidified atmosphere, with medium change or subcultivation 2-3 times a week. Materials used for the assay were CulturPlate-384, White Opaque 384-well Microplate, Sterile and Tissue Culture Treated (Perkin Elmer #6007680), Leibovitz L15 Medium and FBS # SH30071.03 (HyClone).
(§1) The proliferation assays started (day1) with seeding cells in flat bottom 384 well microtiter plates in 90 μL L-15 10% FCS, 1% L-Glu, 1×NEAA and 1× Na-Pyrovat at a density of 500 cells/well. Any other luminescence compatible plate format is possible. On day 2, 10 μL dilutions of the test compounds covering a concentration range between app. 0, 1 and 10.000 nM were added to the cells. Cells were incubated for 5 days in a humidified, CO2 controlled (no CO2) incubator at 37° C. On day 7 100 μL of Cell Titer Glow reagent (Cell titer Glo Luminescent Cat. No. G7571, Promega) were added to each well and incubated for additional 10 min at room temperature (with agitation). Luminescence was measured on a Wallac Victor using standard luminescence read out. IC50 values were calculated using standard Levenburg Marquard algorithms (GraphPad Prism).

MiaPaCa-2 cells = experiment: MiaPaCa-2 CTG proliferation assay (pancreatic cancer); type: cell-based; details: Homo sapiens, MIA PaCa-2, 120 h, read-out: IC50 MiaPACA2
Experimental: MiaPaCa-2 CTG Proliferation Assay (Pancreatic Cancer)
MiaPaCa-2 cells (ATCC® CRM-CRL-1420™) were grown in cell culture flasks (175 cm^2) using DMEM medium supplemented with 10% fetal bovine serum. […] Materials used for the assay were CulturPlate-384, White Opaque 384-well microplate, Sterile and Tissue Culture Treated (Perkin Elmer #6007680), DMEM medium and FBS # SH30071.03 (HyClone).
as §1, with “μL DMEM medium supplemented with” for “μL L-15”, “10% FBS” for “10% FCS, 1% L-Glu, 1×NEAA and 1× Na-Pyrovat”, “humidified, incubator with 5%” for “humidified,”, “CO2” for “CO2 controlled (no CO2) incubator”, “100 μl” for “100 μL”

NCI-H358 cells = experiment: NCI-H358 CTG proliferation assay (120 h) (NSCLC); type: cell-based; details: Homo sapiens, read-out: IC50 NCl-H358
Experimental: NCI-H358 CTG Proliferation Assay (120 h) (NSCLC)
NCI-H358 cells (ATCC No. CRL-5807) were dispensed into white bottom opaque 96 well plates (Perkin Elmer cat no. 5680) at a density of 2000 cells per well in 100 μL RPMI-1640 ATCC-Formulation (Gibco # A10491)+10% FCS. Cells were incubated overnight at 37° C. in a humidified tissue culture incubator at 5% CO2. Compounds (10 mM stock in DMSO) were added at logarithmic dose series using the HP Digital Dispenser D300 (Tecan), normalizing for added DMSO. For the TO time point measurement, untreated cells were analyzed at the time of compound addition. Plates were incubated for 120 hours, and cell viability was measured using CellTiter-Glo luminescent cell viability reagent (Promega product code G7570). Viability (stated as percent of control) is defined as relative luminescence units RLU of each well divided by the RLU of cells in DMSO controls. IC50 values were determined from viability measurements by non-linear regression using a four parameter model.

[3] = system: ERK phosphorylation in NCI-H358_Cas9_SOS2; experiment: ERK phosphorylation assay 2 (AlphaLISA SureFire Ultra p-ERK1/2), SOS2 knock-out; type: cell-based; details: Homo sapiens, NCI-H358; assay 2 (marked with *); read-out: IC50 H358 pERK
From the text: (§2) ERK Phosphorylation Assay
(§3) Materials Used for the Assay;

[4] = system: ERK phosphorylation in NCI-H358 (KRAS G12C mutation); experiment: ERK phosphorylation assay 1 (AlphaLISA SureFire Ultra p-ERK1/2); type: cell-based; details: Homo sapiens, assay 1 (not marked with *), read-out: IC50 H358 pERK
From the text: as §2, §3

[5] = Plasma protein binding (equilibrium dialysis), mouse plasma; type: in vitro ADME; details: read-out: PPB mouse fu
Experimental: (§4) Plasma Protein Binding (PPB)
(§5) Binding of test compound to plasma was determined using equilibrium dialysis (ED) and quantitative mass spectrometry interfaced with liquid chromatography (LC-MS). In brief, ED was performed with dialysis devices consisting of two chambers separated by a semipermeable membrane with a molecular weight cut-off of 5-10 kg/mol. One chamber was filled with commercially sourced plasma (mouse and human plasma, respectively) or serum (10% FCS in PBS) containing 1-10 μmol/L test compound and the other chamber was filled with phosphate-buffer saline (PBS) with or without dextran. The dialysis chamber was incubated for 3-5 hours at 37° C. After incubation, protein was precipitated from aliquots of each chamber and the concentration of test compound in the supernatant of the plasma-containing compartment (cplasma) and of the buffer-containing compartment (Cbuffer) was determined by LC-MS. The fraction of unbound test compound (not bound to plasma) (fu) was calculated according to the following equation: […]

[6] = Plasma protein binding (equilibrium dialysis), human plasma; type: in vitro ADME; details: read-out: PPB human fu
Experimental: as §4, §5

[7] = Plasma protein binding (equilibrium dialysis), serum 10% FCS in PBS; type: in vitro ADME; details: bovine, 10% FCS in PBS (serum), read-out: PPB 10% FCS fu
Experimental: as §4, §5

[8] = SW837 CTG proliferation, read-out: IC50 SW837
[9] = MiaPaCa-2 CTG proliferation, 5 days

T1 sequence (P01116 1-169 isoform P01116-2 G12C/C51S/C80L/C118S): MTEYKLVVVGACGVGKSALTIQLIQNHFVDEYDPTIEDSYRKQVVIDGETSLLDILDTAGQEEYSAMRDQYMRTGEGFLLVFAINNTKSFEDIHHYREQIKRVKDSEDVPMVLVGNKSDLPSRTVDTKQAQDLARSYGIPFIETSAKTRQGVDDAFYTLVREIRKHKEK
Sequence of Ba/F3 cells bearing a KRAS G12C mutation (P01116 whole entry G12C): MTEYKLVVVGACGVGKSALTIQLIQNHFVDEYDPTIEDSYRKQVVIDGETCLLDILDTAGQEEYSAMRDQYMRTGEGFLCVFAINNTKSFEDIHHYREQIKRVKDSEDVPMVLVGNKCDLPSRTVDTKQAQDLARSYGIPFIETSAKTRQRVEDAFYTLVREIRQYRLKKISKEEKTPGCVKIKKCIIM

Compound | IC50 ([1]; KRAS G12C::SOS1 AlphaScreen) [nM] | GI50 [2] [nM] | IC50 (SW837 cells; [8]) [nM] | IC50 (MiaPaCa-2 cells; [9]) [nM] | IC50 (NCI-H358 cells) [nM] | IC50 [3] [nM] | IC50 ([1]; KRAS G12C 7.5 nM, GST-SOS1 5 nM, GDP 10 μM) [nM] | IC50 [4] [nM] | fraction unbound [5] | fraction unbound [6] | fraction unbound [7] | IC50 (SW837 cells; SW837, read-out: IC50 SW837) [nM] | IC50 (MiaPaCa-2 cells) [nM]
C=CC(=O)N1CCN(c2cc(O[C@@H](C)[C@@H]3CCCN3C)nc(-c3cc(C4(C)CCCc5sc(N)c(C#N)c54)no3)n2)CC1 (stereo partly shown) [Ic-1] | 3 | 1.5 | 1.3 | 23.8 | 3.13 | 1.6 |  |  |  |  |  |  | 
C=CC(=O)N1CCN(c2cc(O[C@@H](C)[C@@H]3CCCN3C)nc(-c3cc([C@@]4(C)CCCc5sc(N)c(C#N)c54)no3)n2)[C@H](C)C1 [Ic-2] | 2 | 2.3 | 3.67 | 9.01 | 4.75 | 3.7 |  |  |  |  |  |  | 
C=CC(=O)N1CCN(c2cc(N3CCN(C)CC3)nc(-n3cc(C4(C)CCCc5sc(N)c(C#N)c54)cn3)c2)CC1 (stereo not shown) [Ie-1] |  |  |  |  |  |  | 280 | 125 |  |  |  |  | 
C=CC(=O)N1CCN(c2nc(=O)n(-c3c(C)ccnc3C(C)C)c3nc(-c4c(O)cccc4F)c(F)cc23)[C@@H](C)C1 [sotorasib, reference compound] |  |  |  |  |  |  |  |  | 0.094 | 0.027 | 0.774 | 17 | 49
